Results taken from the NIST ThermoML archive (doi:10.1016/j.jct.2011.10.027).

Assay: xn = mol fraction of the nth substance listed
Conditions: 101 kPa, Liquid, Vibrating tube method

CCCCN(CCCC)CCCC [tributylamine] + Cc1ccccc1
mass density [kg/m3]
Conditions	293.15 K	298.15 K	303.15 K	313.15 K	323.15 K	333.15 K
x1 = 0.0818	851.2	846.71	842.2	833.14	824.01	814.79
x1 = 0.1626	838.57	834.2	829.81	821	812.13	803.18
x1 = 0.2401	828.4	824.14	819.86	811.26	802.6	793.86
x1 = 0.3243	819.07	814.89	810.71	802.29	793.83	785.3
x1 = 0.3987	811.93	807.83	803.72	795.46	787.15	778.78
x1 = 0.4789	805.28	801.25	797.2	789.08	780.92	772.69
x1 = 0.5592	799.41	795.44	791.46	783.47	775.43	767.34
x1 = 0.6414	794.14	790.22	786.3	778.42	770.5	762.52
x1 = 0.7238	789.42	785.56	781.69	773.92	766.11	758.24
x1 = 0.7985	785.62	781.8	777.97	770.28	762.56	754.78
x1 = 0.8802	781.79	778.01	774.23	766.64	759	751.31
x1 = 0.8991	780.96	777.2	773.42	765.85	758.23	750.57

CCCCN(CCCC)CCCC [tributylamine] + Cc1ccccc1C
mass density [kg/m3]
Conditions	293.15 K	298.15 K	303.15 K	313.15 K	323.15 K	333.15 K
x1 = 0.0762	865.26	861.1	856.94	848.59	840.19	831.72
x1 = 0.1611	851.26	847.17	843.07	834.83	826.55	818.19
x1 = 0.2324	840.99	836.94	832.88	824.73	816.54	808.28
x1 = 0.3142	830.6	826.6	822.59	814.54	806.44	798.29
x1 = 0.3986	821.15	817.19	813.22	805.26	797.25	789.19
x1 = 0.481	812.95	809.03	805.1	797.21	789.28	781.29
x1 = 0.5686	805.17	801.29	797.4	789.61	781.76	773.87
x1 = 0.6368	799.67	795.83	791.97	784.23	776.45	768.61
x1 = 0.7145	793.98	790.16	786.34	778.66	770.94	763.17
x1 = 0.769	790.27	786.47	782.67	775.03	767.36	759.64
x1 = 0.8741	783.74	779.98	776.21	768.65	761.06	753.41
x1 = 0.9545	779.3	775.56	771.81	764.3	756.75	749.14

CCCCN(CCCC)CCCC [tributylamine] + O=[N+]([O-])c1ccccc1
mass density [kg/m3]
Conditions	293.15 K	298.15 K	303.15 K	313.15 K	323.15 K	333.15 K
x1 = 0.0806	1132.44	1127.65	1122.87	1113.29	1103.7	1094.1
x1 = 0.1692	1068.2	1063.58	1058.97	1049.72	1040.46	1031.17
x1 = 0.2426	1023.24	1018.75	1014.26	1005.27	996.24	987.2
x1 = 0.3259	979.47	975.11	970.74	961.98	953.2	944.4
x1 = 0.3993	945.96	941.69	937.43	928.86	920.27	911.63
x1 = 0.4829	912.69	908.52	904.33	895.96	887.56	879.12
x1 = 0.5607	885.41	881.32	877.22	869.01	860.76	852.46
x1 = 0.6392	861.09	857.07	853.04	844.97	836.86	828.72
x1 = 0.7176	839.19	835.25	831.29	823.36	815.4	807.4
x1 = 0.7976	819.27	815.39	811.5	803.7	795.86	787.99
x1 = 0.8779	801.19	797.38	793.55	785.88	778.17	770.42
x1 = 0.9546	785.56	781.8	778.03	770.48	762.89	755.25
